“And” between values parts separate entries of the source, which are not always exact repeats. Equal values may be shown once. Toxic doses and inconclusive results are not listed.
Tested on: BDF1 mice, P388 leukemia ip, median survival T/C
Assay: NCI In Vivo Anticancer Drug Screen. Data for tumor model P388 Leukemia (intraperitoneal) in B6D2F1 (BDF1) mice
Settings: endpoint: median survival time, higher = longer survival
In short: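 Mice carrying the transplantable tumour receive compound or vehicle. Survival is followed in each arm, and the treated measure is divided by the vehicle measure.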

[1] = dose: 50.0 mg/kg/injection, schedule: Q01DX010 (ip), vehicle: saline
[2] = dose: 50.0 mg/kg/injection, schedule: Q01DX009 (ip), vehicle: saline with Tween-80
[3] = dose: 100.0 mg/kg/injection, schedule: Q01DX009 (ip), vehicle: saline with Tween-80
[4] = dose: 200.0 mg/kg/injection, schedule: Q01DX009 (ip), vehicle: saline with Tween-80
[5] = dose: 100.0 mg/kg/injection, schedule: Q04DX003 (ip), vehicle: saline
[6] = dose: 100.0 mg/kg/injection, schedule: Q04DX003 (ip), vehicle: saline with Tween-80
[7] = dose: 200.0 mg/kg/injection, schedule: Q04DX003 (ip), vehicle: saline with Tween-80

COc1cccc2c1C(=O)c1c(O)c3c(c(O)c1C2=O)C[C@@](O)(C(=O)CO)C[C@@H]3OC1CC(NC(=O)CN)C(O)C(C)O1 (some centres not stated)
T/C (dose: 1.56 mg/kg/injection, schedule: Q01DX009 (ip), vehicle: other): 108 % of control
T/C (dose: 3.13 mg/kg/injection, schedule: Q01DX009 (ip), vehicle: other): 110 % of control
T/C (dose: 6.25 mg/kg/injection, schedule: Q01DX009 (ip), vehicle: other): 105 % of control
T/C (dose: 12.5 mg/kg/injection, schedule: Q01DX009 (ip), vehicle: other): 99 % of control
T/C (dose: 25.0 mg/kg/injection, schedule: Q01DX009 (ip), vehicle: other): 114 % of control

O=C(O)C(O)C(O)C(O)C(O)C(=O)O (configuration not stated)
T/C [1]: 100 % of control
T/C (dose: 100.0 mg/kg/injection, schedule: Q01DX010 (ip), vehicle: saline): 109 % of control
T/C (dose: 200.0 mg/kg/injection, schedule: Q01DX010 (ip), vehicle: saline): 100 % of control
T/C (dose: 400.0 mg/kg/injection, schedule: Q01DX010 (ip), vehicle: saline): 104 % of control
T/C (dose: 600.0 mg/kg/injection, schedule: Q01DX010 (ip), vehicle: saline): 88 % of control
T/C (dose: 750.0 mg/kg/injection, schedule: Q01DX010 (ip), vehicle: saline): 88 % of control

COC1C(OC(=O)c2ccc(C)[nH]2)C(O)C(Oc2ccc3c(O)c(NC(=O)c4ccc(O)c(CC=C(C)C)c4)c(=O)oc3c2Cl)OC1(C)C (configuration not stated)
T/C (dose: 50.0 mg/kg/injection, schedule: Q01DX009 (ip), vehicle: other): 106 % of control
T/C (dose: 100.0 mg/kg/injection, schedule: Q01DX009 (ip), vehicle: other): 104 % of control
T/C (dose: 200.0 mg/kg/injection, schedule: Q01DX009 (ip), vehicle: other): 115 % of control

O=[N+]([O-])c1ccc(N2CCN=N2)cc1
T/C (dose: 25.0 mg/kg/injection, schedule: Q01DX010 (ip), vehicle: saline): 104 % of control
T/C (dose: 25.0 mg/kg/injection, schedule: Q04DX003 (ip), vehicle: saline sonified): 100 % of control
T/C [1]: 123 % of control
T/C (dose: 50.0 mg/kg/injection, schedule: Q04DX003 (ip), vehicle: saline sonified): 95 % of control
T/C (dose: 100.0 mg/kg/injection, schedule: Q04DX003 (ip), vehicle: saline sonified): 86 % of control

O=C(Nc1ccc(F)cc1)C12CC3CC(CC(C3)C1)C2
T/C [2]: 92 % of control
T/C [3]: 92 % of control
T/C [4]: 92 % of control

O=NN(CCCl)C(=O)Nc1cccc(O)c1
T/C (dose: 22.0 mg/kg/injection, schedule: Q04DX003 (ip), vehicle: Klucel (hydroxypropylcellulose) (HPC)): 190 % of control
T/C (dose: 25.0 mg/kg/injection, schedule: Q01DX009 (ip), vehicle: Klucel (hydroxypropylcellulose) (HPC)): 215 % of control
T/C (dose: 33.0 mg/kg/injection, schedule: Q04DX003 (ip), vehicle: Klucel (hydroxypropylcellulose) (HPC)): 186 % of control
T/C (dose: 35.0 mg/kg/injection, schedule: Q01DX009 (ip), vehicle: Klucel (hydroxypropylcellulose) (HPC)): 100 % of control
T/C (dose: 50.0 mg/kg/injection, schedule: Q01DX009 (ip), vehicle: Klucel (hydroxypropylcellulose) (HPC)): 88 % of control and 215 % of control
T/C (dose: 50.0 mg/kg/injection, schedule: Q04DX003 (ip), vehicle: Klucel (hydroxypropylcellulose) (HPC)): 186 % of control
T/C (dose: 66.0 mg/kg/injection, schedule: Q04DX003 (ip), vehicle: saline): 222 % of control
T/C (dose: 75.0 mg/kg/injection, schedule: Q01DX009 (ip), vehicle: Klucel (hydroxypropylcellulose) (HPC)): 158 % of control
T/C (dose: 100.0 mg/kg/injection, schedule: Q01DX009 (ip), vehicle: Klucel (hydroxypropylcellulose) (HPC)): 105 % of control
T/C (dose: 100.0 mg/kg/injection, schedule: Q04DX003 (ip), vehicle: Klucel (hydroxypropylcellulose) (HPC)): 222 % of control
T/C [5]: 272 % of control

CSc1ncnc2c1ncn2CCCl
T/C [2]: 91 % of control
T/C [3]: 87 % of control
T/C [6]: 95 % of control
T/C [4]: 91 % of control
T/C [7]: 100 % of control

COc1ccccc1NC(=O)N(CCCl)N=O
T/C (dose: 0.1 mg/kg/injection, schedule: Q04DX003 (ip), vehicle: saline with Tween-80): 110 % of control
T/C (dose: 0.2 mg/kg/injection, schedule: Q04DX003 (ip), vehicle: saline with Tween-80): 100 % of control
T/C (dose: 0.4 mg/kg/injection, schedule: Q04DX003 (ip), vehicle: saline with Tween-80): 105 % of control
T/C (dose: 0.8 mg/kg/injection, schedule: Q04DX003 (ip), vehicle: saline with Tween-80): 110 % of control

Nc1ncnc2c1c(C(=O)O)cn2C1OC(CO)C(O)C1O (configuration not stated)
T/C (dose: 66.0 mg/kg/injection, schedule: Q04DX003 (ip), vehicle: saline with Tween-80): 160 % of control
T/C [6]: 150 % of control and 170 % of control

CCCCCCCCCCCCCCC(F)C(=O)OC (configuration not stated)
T/C (dose: 25.0 mg/kg/injection, schedule: Q01DX009 (sc), vehicle: olive oil, sesame oil, peanut oil): 95 % of control
T/C (dose: 50.0 mg/kg/injection, schedule: Q01DX009 (sc), vehicle: olive oil, sesame oil, peanut oil): 86 % of control
T/C (dose: 50.0 mg/kg/injection, schedule: Q04DX003 (sc), vehicle: olive oil, sesame oil, peanut oil): 91 % of control
T/C (dose: 100.0 mg/kg/injection, schedule: Q01DX009 (sc), vehicle: olive oil, sesame oil, peanut oil): 100 % of control
T/C (dose: 100.0 mg/kg/injection, schedule: Q04DX003 (sc), vehicle: olive oil, sesame oil, peanut oil): 91 % of control

COc1ccc(/C=C/c2ccc3ccccc3[n+]2C)cc1OC
T/C (dose: 18.75 mg/kg/injection, schedule: Q01DX009 (ip), vehicle: saline): 150 % of control
T/C (dose: 37.5 mg/kg/injection, schedule: Q01DX009 (ip), vehicle: saline): 160 % of control

CC/C(=C(\CC)c1ccc(OC)cc1)c1ccc(O)cc1
T/C (dose: 100.0 mg/kg/injection, schedule: Q01DX009 (ip), vehicle: saline sonified): 105 % of control
T/C [6]: 109 % of control
T/C (dose: 200.0 mg/kg/injection, schedule: Q01DX009 (ip), vehicle: saline sonified): 110 % of control
T/C [7]: 104 % of control
T/C (dose: 400.0 mg/kg/injection, schedule: Q01DX009 (ip), vehicle: saline sonified): 115 % of control
T/C (dose: 400.0 mg/kg/injection, schedule: Q04DX003 (ip), vehicle: saline with Tween-80): 95 % of control

O=C1C=CC(=O)C(c2ccccc2)=C1
T/C (dose: 12.5 mg/kg/injection, schedule: Q01DX001 (ip), vehicle: Klucel (hydroxypropylcellulose) (HPC)): 110 % of control
T/C (dose: 25.0 mg/kg/injection, schedule: Q01DX001 (ip), vehicle: Klucel (hydroxypropylcellulose) (HPC)): 100 % of control
T/C (dose: 50.0 mg/kg/injection, schedule: Q01DX001 (ip), vehicle: Klucel (hydroxypropylcellulose) (HPC)): 100 % of control

CNNCc1ccc(C(=O)NC(N)=O)cc1
T/C [5]: 95 % of control
T/C (dose: 133.0 mg/kg/injection, schedule: Q01DX009 (ip), vehicle: saline): 111 % of control
T/C (dose: 200.0 mg/kg/injection, schedule: Q01DX009 (ip), vehicle: saline): 100 % of control
T/C (dose: 200.0 mg/kg/injection, schedule: Q04DX003 (ip), vehicle: saline): 95 % of control
T/C (dose: 400.0 mg/kg/injection, schedule: Q01DX009 (ip), vehicle: saline): 107 % of control
T/C (dose: 400.0 mg/kg/injection, schedule: Q04DX003 (ip), vehicle: saline): 113 % of control

COc1cc2cc(c1Cl)NC(=O)/C=C/C(C)=C/[C@H](C)[C@@H]1C[C@@](O)(NC(=O)O1)[C@H](OC)C=C/C=C(\C)C2
T/C (dose: 1.6 micrograms/kg/injection, schedule: Q01DX009 (ip), vehicle: saline + alcohol): 104 % of control
T/C (dose: 3.1 micrograms/kg/injection, schedule: Q01DX009 (ip), vehicle: saline + alcohol): 95 % of control
T/C (dose: 6.2 micrograms/kg/injection, schedule: Q01DX009 (ip), vehicle: saline + alcohol): 87 % of control
T/C (dose: 25.0 micrograms/kg/injection, schedule: Q01DX009 (ip), vehicle: saline + alcohol): 108 % of control
T/C (dose: 50.0 micrograms/kg/injection, schedule: Q01DX009 (ip), vehicle: saline + alcohol): 120 % of control
T/C (dose: 100.0 micrograms/kg/injection, schedule: Q01DX009 (ip), vehicle: saline + alcohol): 120 % of control
T/C (dose: 200.0 micrograms/kg/injection, schedule: Q01DX009 (ip), vehicle: saline + alcohol): 104 % of control

Cc1ccc(S(=O)(=O)/C=C/c2ccccc2)cc1
T/C [2]: 100 % of control
T/C [3]: 100 % of control
T/C [4]: 103 % of control

CC1(C)OC2(C)CCC1C(=O)C2N1CCCCC1 (configuration not stated)
T/C (dose: 50.0 mg/kg/injection, schedule: Q01DX005 (ip), vehicle: saline with Tween-80): 105 % of control
T/C (dose: 100.0 mg/kg/injection, schedule: Q01DX005 (ip), vehicle: saline with Tween-80): 95 % of control
T/C (dose: 200.0 mg/kg/injection, schedule: Q01DX005 (ip), vehicle: saline with Tween-80): 101 % of control

CN=S(=O)(OCC#CCOS(=O)(=NC)c1ccc(C)cc1)c1ccc(C)cc1 (configuration not stated)
T/C (dose: 50.0 mg/kg/injection, schedule: Q01DX009 (ip), vehicle: saline + alcohol): 151 % of control
T/C (dose: 100.0 mg/kg/injection, schedule: Q01DX009 (ip), vehicle: saline + alcohol): 87 % of control
T/C [3]: 94 % of control
